Reference: patent US20080207522A1, “Antimicrobial Peptides” (priority 2004, published 2008)

Columns and labels:
[1] = tested on: Pseudomonas aeruginosa strain H1001 fliC::luxCDABE; assay: Luminescence-based assay for the non-cleaved (bound) peptides on cellulose membranes; assay type: cell-based; settings: for Luminescence at the given time in minutes: 0 / Luminescence at the given time in minutes: 20 / Luminescence at the given time in minutes: 40 / Luminescence at the given time in minutes: 60 / Luminescence at the given time in minutes: 80 / Luminescence at the given time in minutes: 100 / Luminescence at the given time in minutes: 120 / Luminescence at the given time in minutes: 180 / Luminescence at the given time in minutes: 240: cellulose-bound peptide; for Luminescence at the given time in minutes: 0: 0 min; for Luminescence at the given time in minutes: 20: 20 min; for Luminescence at the given time in minutes: 40: 40 min; for Luminescence at the given time in minutes: 60: 60 min; for Luminescence at the given time in minutes: 80: 80 min; for Luminescence at the given time in minutes: 100: 100 min; for Luminescence at the given time in minutes: 120: 120 min; for Luminescence at the given time in minutes: 180: 180 min; for Luminescence at the given time in minutes: 240: 240 min; for Activity Class bound: uncleaved cellulose-bound peptides
Procedure: Luminescence-based MIC assay for the non-cleaved peptides on cellulose membranes. The peptide spots were punched out and transferred to a 96 well microtiter plate with a clear polystyrene bottom and opaque white polypropylene sides (PerkinElmer, Boston, USA). The spots were washed two times with 100% ethanol for 5 min and afterwards equilibrated five times with 100 mM Tris buffer pH 7.3 for 5 min. An overnight culture of Pseudomonas aeruginosa strain H1001 fliC::luxCDABE was diluted 1:50 in new MH medium and incubated at 37° C. to an OD600 of 0.35. This bacterial culture was diluted 1:25 into 10 mM Tris-HCl buffer, pH 7.3 containing 20 mM glucose. Fifty μl of this culture was added to all wells of the microtiter plate and incubated at 37° C. The luminescence of the strain produced by the ATP-dependent luciferase system was detected in a time dependent manner using a Tecan Spectra Fluor plus (Tecan, Austria). At the end of the experiment, the membranes were cleaned by washing the spots two times with 100% ethanol for five minutes. After removing the ethanol the membrane was air-dried.
(§1) Strains. For the killing assay a mini-Tn5-lux mutant in Pseudomonas aeruginosa H103 was used. The strain is called H1001 and contains a fliC::luxCDABE transcriptional fusion resulting in constitutive expression of luciferase. The bacterial strains used for the antimicrobial activity assays included Escherichia coli UB1005 (F-, nalA37, metB1), a wild-type Salmonella enterica ssp. Typhimurium (S. Typhimurium), wild-type Pseudomonas aeruginosa PAO1 strain H103, Enterococcus faecalis ATCC29212, Staphylococcus aureus ATCC25923, and a clinical isolate of Staphylococcus epidermidis obtained from Dr. D. Speert (Department of Medicine, University of British Columbia). Antifungal activity was tested using a lab isolate of Candida albicans obtained from Dr. B. Dill (Department of Microbiology and Immunology, University of British Columbia).
The same set of peptides, as well as the reversed sequence of Bac2A-R ([…]; SEQ ID NO: 2166), were synthesized on cellulose and left uncleaved. The production of light was initially compared in wells containing spots of Bac2A, Bac2A-R (with the reversed sequence of Bac2A), the unrelated negative-control peptide, or, as additional controls, only cellulose, or only bacteria (FIG. 2).
As a control, the negative control (unrelated) peptide Bac429 and parent peptide Bac2A (=Bac001) were used in several different wells of the microtiter plate. Luminescence (relative light units; RLU) was measured at 14 different time points, 9 of which are shown. To permit comparison of the data with the free peptide data set, the result for each peptide was classified into six different groups, like the data set with the free peptides (Table 2). […] For the soluble peptides the following classes were established: […]

[2] = tested on: Pseudomonas aeruginosa strain H1001; assay: Assay for the cleaved (free, soluble) peptides from cellulose support, luminescence killing assay; assay type: cell-based; design: key: 1: Peptides showing stronger killing than Bac2A at a 4 to 8-fold higher dilution; Peptides showing stronger killing compared to that of Bac2A at a 4-fold higher dilution; 3: Peptides similar to Bac2A; 4: Peptides similar to Bac2A at the highest concentration but demonstrating weaker killing at a 2-fold dilution; 5: Peptides giving very weak or no killing at a 2-fold dilution; 6: Peptides with weak killing activity at the highest concentration; settings: free (cleaved) peptides, killing relative to Bac2A
Procedure: Assay for the cleaved peptides from cellulose support. The peptides were cleaved from the dried membrane in an ammonia atmosphere overnight, resulting in free peptides with an amidated C-terminus. The free peptides contained two β-alanines at the C-terminus, in addition to being amidated due to the linker between the cellulose membrane and the peptide sequence. The peptide spots were punched out and transferred in a 96-well microtiter plate. Serial dilutions were carried out from the membrane spots. Four rows were filled with four controls including two with Bac2A and two with of an unrelated peptide. The other eight rows were used for serial dilution steps of the peptide variants. An overnight culture of Pseudomonas aeruginosa strain H1001 was diluted 1:500 using either LB media or 100 mM Tris buffer pH 7.3, 20 mM glucose and was added to the wells (100 μl/well) containing the peptide spots. In all other wells 50 μl were added. The microtiter plate was incubated for 30 min at 37° C. to release the peptides from the membrane. Subsequently, a dilution series were performed and the plate was incubated at 37° C. The luminescence produced by the ATP dependent luciferase system were detected in a time dependent manner using a Tecan Spectra Fluor plus.
as §1
Peptide synthesis on cellulose is a very effective and inexpensive way to investigate many different peptide variants for one particular activity. However, one of the problems of this technique is the low peptide density synthesized on the membrane, about 280 nmol per cm2. An average peptide spot used for the experiments presented is about 0.3 cm2. Therefore, an assay had to be developed that was sensitive enough to show activity with this amount of peptides. P. aeruginosa H1001 has a reporter system (e.g., a luciferase gene cassette) incorporated into the bacterial chromosome in the fliC gene (involved in flagellar biosynthesis) that is constitutively expressed. It will thus produce light if ATP is present. When this strain is killed, e.g. by peptides, the amount of light produced will decrease due to a decrease in ATP levels in the killed cells. This action can thus be monitored by detecting luminescence in a microtiter plate luminescence reader over time. The volume and amount of cells per well were optimized for this assay. After screening, the killing action was monitored with small amounts of the parent peptide Bac2A (2 μg/ml of free peptide).
Forty-nine scrambled peptides (Bac002-Bac050) were synthesized on the cellulose support and then cleaved by ammonia gas resulting in free peptides with an amidated C-terminus including the linker. The peptide spots were transferred to a 96-well microtiter plate and incubated for 30 min to dissociate the peptides from the cellulose. After serial dilution and addition of strain H1001, luminescence was recorded in a time dependent manner (FIG. 1). All 50 scrambled peptides were compared to Bac2A ([…]-NH2; SEQ ID NO: 1) by this assay (see Table 2). […] Further since all scrambled peptides had some activity, a sequence-specific interaction of the peptides with a receptor or target could be excluded.

Sequence	Luminescence at the given time in minutes: 0 [1]	Luminescence at the given time in minutes: 20 [1]	Luminescence at the given time in minutes: 40 [1]	Luminescence at the given time in minutes: 60 [1]	Luminescence at the given time in minutes: 80 [1]	Luminescence at the given time in minutes: 100 [1]	Luminescence at the given time in minutes: 120 [1]	Luminescence at the given time in minutes: 180 [1]	Luminescence at the given time in minutes: 240 [1]	Activity Class bound [1]	Activity Class Soluble [2]
ARRLIVRVRVIA [Bac003]	4138 RLU	5992 RLU	3320 RLU	906 RLU	192 RLU	74 RLU	83 RLU	76 RLU	36 RLU	3 (Peptides similar to Bac2A resulting in lux values of less than 500 after 240 min.)	5
AVRAIRVLRVIR [Bac015]	4309 RLU	7112 RLU	5227 RLU	3783 RLU	2656 RLU	1785 RLU	1398 RLU	1244 RLU	1320 RLU	4 (Peptides reducing luminescence (lux) values to between 500 to 1499 after 240 min.)	3
AVRVRRRAILVI [Bac011]	4516 RLU	7019 RLU	5176 RLU	3694 RLU	2076 RLU	1222 RLU	816 RLU	494 RLU	447 RLU	3 (Peptides similar to Bac2A resulting in lux values of less than 500 after 240 min.)	4
IAARRLIRVVRV [Bac012]	4045 RLU	7171 RLU	5701 RLU	5037 RLU	4631 RLU	4418 RLU	4182 RLU	4344 RLU	5087 RLU	6 (Peptides having residual luminescence (lux) values greater than 3000 after 240 min.)	3
IARRIVAVRLRV [Bac026]	4873 RLU	6389 RLU	4439 RLU	2341 RLU	1080 RLU	518 RLU	302 RLU	201 RLU	208 RLU	3 (Peptides similar to Bac2A resulting in lux values of less than 500 after 240 min.)	3
IIRAALRRVRVV [Bac009]	3935 RLU	6553 RLU	4936 RLU	4512 RLU	3977 RLU	3488 RLU	3216 RLU	3270 RLU	3104 RLU	6 (Peptides having residual luminescence (lux) values greater than 3000 after 240 min.)	5
ILVARVIRRRVA [Bac019]	5239 RLU	7569 RLU	5731 RLU	4741 RLU	3822 RLU	3000 RLU	2373 RLU	1908 RLU	1570 RLU	5 (Peptides reducing luminescence (lux) values to between 1500 to 3000 after 240 min.)	5
ILVIVRRRARAV [Bac042]	5171 RLU	6703 RLU	4453 RLU	2128 RLU	746 RLU	244 RLU	86 RLU	49 RLU	52 RLU	3 (Peptides similar to Bac2A resulting in lux values of less than 500 after 240 min.)	3
IRARIAVRRVVL [Bac004]	3773 RLU	6547 RLU	5008 RLU	4405 RLU	3805 RLU	3125 RLU	2753 RLU	2459 RLU	2607 RLU	5 (Peptides reducing luminescence (lux) values to between 1500 to 3000 after 240 min.)	3
IRVRRLVAAVIR [Bac033]	4795 RLU	6539 RLU	4785 RLU	4155 RLU	3565 RLU	3095 RLU	2639 RLU	2613 RLU	2962 RLU	5 (Peptides reducing luminescence (lux) values to between 1500 to 3000 after 240 min.)	5
